Test results as given in patent publication US20070128217A1 (priority 2003, published 2007).

Tests used:
[1] = test system: antibodies in sera from SARS patients (sera 1a, 1b, 2, 6, 37, 62, London, SARS-yellow, SARS-green); format: binding, human; design: Binding of serum 6 to linear peptides of protein X1 of SARS-CoV Urbani / Binding of serum 37 to linear peptides of protein X1 of SARS-CoV Urbani / Binding of serum 6 to looped/cyclic peptide (PEPSCAN-ELISA) / Binding of serum 37 to looped/cyclic peptide (PEPSCAN-ELISA) / Binding of serum 37 to looped/cyclic peptides of protein X1 of SARS-CoV Urbani / Binding of serum 6 to linear peptides of protein X2 / Binding of serum 37 to linear peptides of protein X2 / Binding of serum 37 to looped/cyclic peptides of protein X2 of SARS-CoV Urbani / Binding of serum 6 to linear peptides of protein M of SARS-CoV Urbani / Binding of serum 37 to linear peptides of protein M of SARS-CoV Urbani / Binding of serum 6 to looped/cyclic peptides of protein M of SARS-CoV Urbani / Binding of serum 37 to looped/cyclic peptides of protein M of SARS-CoV Urbani / Binding of serum 6 to linear peptides of protein X3 of SARS-CoV Urbani / Binding of serum 37 to linear peptides of protein X3 of SARS-CoV Urbani / Binding of serum 37 to looped/cyclic peptides of protein X3 of SARS-CoV Urbani / Binding of serum 6 to linear peptides of protein X4 of SARS-CoV Urbani / Binding of serum 37 to linear peptides of protein X4 of SARS-CoV Urbani / Binding of serum 37 to looped/cyclic peptides of protein X4 of SARS-CoV Urbani / Binding of serum 6 to linear peptides of protein X5 of SARS-CoV Urbani / Binding of serum 37 to linear peptides of protein X5 of SARS-CoV Urbani / Binding of serum 37 to looped/cyclic peptides of protein X5 of SARS-CoV Urbani / Binding of serum 6 to linear peptides of protein N of SARS-CoV Urbani / Binding of serum 37 to linear peptides of protein N of SARS-CoV Urbani / Binding of serum 6 to linear peptide (PEPSCAN-ELISA) / Binding of serum 1a to looped/cyclic peptides of protein N of SARS-CoV Urbani / Binding of serum 1b to looped/cyclic peptides of protein N of SARS-CoV Urbani / Binding of serum 2 to looped/cyclic peptides of protein N of SARS-CoV Urbani / Binding of serum 6 to looped/cyclic peptides of protein N of SARS-CoV Urbani / Binding of serum 37 to looped/cyclic peptides of protein N of SARS-CoV Urbani / Binding of serum 62 to looped/cyclic peptides of protein N of SARS-CoV Urbani / Binding of serum London to looped/cyclic peptides of protein N of SARS-CoV Urbani / Binding of serum SARS-green to looped/cyclic peptides of protein N of SARS-CoV Urbani: unit not given here
[2] = test system: rabbit serum obtained by immunizing a rabbit with the SARS-CoV strain Frankfurt 1; format: binding; design: Binding of a rabbit serum to linear peptides / Binding of a rabbit serum to looped peptides / Rabbit serum linear peptides / Rabbit serum looped peptides / Binding of a rabbit serum to linear peptides of protein N of SARS-CoV Urbani (Rabbit serum linear peptides) / Binding of a rabbit serum to looped/cyclic peptides of protein N of SARS-CoV Urbani (Rabbit serum looped peptides): unit not given here
[3] = test system: control sera (pooled serum of ten healthy LUMC hospital workers; commercial negative donor pooled serum from the Dutch bloodbank); format: binding, human; design: Binding of Control serum LUMC to linear peptides / Binding of Control serum Blood-bank to linear peptides / Binding of Control serum LUMC to looped peptides / Binding of Control Serum Blood-Bank to Looped peptides / Binding of Control serum LUMC to linear peptides of the protein M of SARS-CoV Urbani / Binding of Control serum Blood-bank to linear peptides of the protein M of SARS-CoV Urbani / Binding of Control serum LUMC to looped peptides of the protein M of SARS-CoV Urbani / Binding of Control Serum Blood-Bank to Looped peptides of the protein M of SARS-CoV Urbani: unit not given here

Sequence: QSTALQELLIQQWIQ
- Binding of serum 1a to linear peptides of protein X2 [1]: 0.6
- Binding of serum 1a to looped/cyclic peptides of protein X2 of SARS-CoV Urbani [1]: 0.6
- Binding of serum 1b to linear peptides of protein X2 [1]: 0.4
- Binding of serum 1b to looped/cyclic peptides of protein X2 of SARS-CoV Urbani [1]: 0.5
- Binding of serum 2 to linear peptides of protein X2 [1]: 0.4
- Binding of serum 2 to looped/cyclic peptides of protein X2 of SARS-CoV Urbani [1]: 0.4
- Binding of serum 6 to linear peptides of protein X2 [1]: 0.4
- Binding of serum 6 to looped/cyclic peptides of protein X2 of SARS-CoV Urbani [1]: 0.2
- Binding of serum 37 to linear peptides of protein X2 [1]: 0.5
- Binding of serum 37 to looped/cyclic peptides of protein X2 of SARS-CoV Urbani [1]: 0.4
- Binding of serum 62 to linear peptides of protein X2 [1]: 0.5
- Binding of serum 62 to looped/cyclic peptides of protein X2 of SARS-CoV Urbani [1]: 0.6
- Binding of serum London to linear peptides of protein X2 [1]: 0.5
- Binding of serum London to looped/cyclic peptides of protein X2 of SARS-CoV Urbani [1]: 0.2
- Binding of serum SARS-green to linear peptides of protein X2 [1]: 0.6
- Binding of serum SARS-green to looped/cyclic peptides of protein X2 of SARS-CoV Urbani [1]: 0.4
- Binding of serum SARS-yellow to linear peptides of protein X2 [1]: 0.4
- Binding of serum SARS-yellow to looped/cyclic peptides of protein X2 of SARS-CoV Urbani [1]: 0.4
- Binding of a rabbit serum to linear peptides [2]: 0.2
- Binding of a rabbit serum to looped peptides [2]: 0.4
- Binding of Control Serum Blood-Bank to Looped peptides [3]: 0.6
- Binding of Control serum Blood-bank to linear peptides [3]: 0.6
- Binding of Control serum LUMC to linear peptides [3]: 0.4
- Binding of Control serum LUMC to looped peptides [3]: 0.6

Sequence: MRFFTLGSITAQPVK
- Binding of serum 1a to linear peptides of protein X1 of SARS-CoV Urbani [1]: 0.6
- Binding of serum 1a to looped/cyclic peptide (PEPSCAN-ELISA) [1]: 0.3
- Binding of serum 1b to linear peptides of protein X1 of SARS-CoV Urbani [1]: 0.4
- Binding of serum 1b to looped/cyclic peptide (PEPSCAN-ELISA) [1]: 0.1
- Binding of serum 2 to linear peptides of protein X1 of SARS-CoV Urbani [1]: 0.4
- Binding of serum 2 to looped/cyclic peptide (PEPSCAN-ELISA) [1]: 0.1
- Binding of serum 6 to linear peptides of protein X1 of SARS-CoV Urbani [1]: 0.6
- Binding of serum 6 to looped/cyclic peptide (PEPSCAN-ELISA) [1]: 0.2
- Binding of serum 37 to linear peptides of protein X1 of SARS-CoV Urbani [1]: 0.6
- Binding of serum 37 to looped/cyclic peptide (PEPSCAN-ELISA) [1]: 0.2
- Binding of serum 62 to linear peptides of protein X1 of SARS-CoV Urbani [1]: 0.4
- Binding of serum 62 to looped/cyclic peptide (PEPSCAN-ELISA) [1]: 0.3
- Binding of serum London to linear peptides of protein X1 of SARS-CoV Urbani [1]: 0.5
- Binding of serum London to looped/cyclic peptide (PEPSCAN-ELISA) [1]: 0.2
- Binding of serum SARS-green to linear peptides of protein X1 of SARS-CoV Urbani [1]: 0.2
- Binding of serum SARS-green to looped/cyclic peptide (PEPSCAN-ELISA) [1]: 0.1
- Binding of serum SARS-yellow to linear peptides of protein X1 of SARS-CoV Urbani [1]: 0.4
- Binding of serum SARS-yellow to looped/cyclic peptide (PEPSCAN-ELISA) [1]: 0.1
- Binding of a rabbit serum to linear peptides [2]: 0.4
- Binding of a rabbit serum to looped peptides [2]: 0.2
- Binding of Control Serum Blood-Bank to Looped peptides [3]: 0.2
- Binding of Control serum Blood-bank to linear peptides [3]: 0.4
- Binding of Control serum LUMC to linear peptides [3]: 0.7
- Binding of Control serum LUMC to looped peptides [3]: 0.4

Sequence: RHTYQLRARSVSPKL
- Binding of serum 1a to linear peptides of protein X4 of SARS-CoV Urbani [1]: 0.8
- Binding of serum 1a to looped/cyclic peptides of protein X4 of SARS-CoV Urbani [1]: 0.8
- Binding of serum 1b to linear peptides of protein X4 of SARS-CoV Urbani [1]: 0.6
- Binding of serum 1b to looped/cyclic peptides of protein X4 of SARS-CoV Urbani [1]: 0.5
- Binding of serum 2 to linear peptides of protein X4 of SARS-CoV Urbani [1]: 0.6
- Binding of serum 2 to looped/cyclic peptides of protein X4 of SARS-CoV Urbani [1]: 0.7
- Binding of serum 6 to linear peptides of protein X4 of SARS-CoV Urbani [1]: 1.1
- Binding of serum 6 to looped/cyclic peptides of protein X4 of SARS-CoV Urbani [1]: 0.8
- Binding of serum 37 to linear peptides of protein X4 of SARS-CoV Urbani [1]: 0.9
- Binding of serum 37 to looped/cyclic peptides of protein X4 of SARS-CoV Urbani [1]: 0.7
- Binding of serum 62 to linear peptides of protein X4 of SARS-CoV Urbani [1]: 0.8
- Binding of serum 62 to looped/cyclic peptides of protein X4 of SARS-CoV Urbani [1]: 0.6
- Binding of serum London to linear peptides of protein X4 of SARS-CoV Urbani [1]: 0.8
- Binding of serum London to looped/cyclic peptides of protein X4 of SARS-CoV Urbani [1]: 0.3
- Binding of serum SARS-green to linear peptides of protein X4 of SARS-CoV Urbani [1]: 0.7
- Binding of serum SARS-green to looped/cyclic peptides of protein X4 of SARS-CoV Urbani [1]: 0.4
- Binding of serum SARS-yellow to linear peptides of protein X4 of SARS-CoV Urbani [1]: 0.6
- Binding of serum SARS-yellow to looped/cyclic peptides of protein X4 of SARS-CoV Urbani [1]: 0.7
- Recognition of the peptide by the rabbit serum [2]: recognized
- Binding of Control Serum Blood-Bank to Looped peptides [3]: 0.6
- Binding of Control serum Blood-bank to linear peptides [3]: 0.8
- Binding of Control serum LUMC to linear peptides [3]: 0.7
- Binding of Control serum LUMC to looped peptides [3]: 0.7

Sequence: TVSQIQLSLLKVTAF
- Binding of serum 1a to linear peptides of protein X2 [1]: 0.5
- Binding of serum 1a to looped/cyclic peptides of protein X2 of SARS-CoV Urbani [1]: 0.5
- Binding of serum 1b to linear peptides of protein X2 [1]: 0.4
- Binding of serum 1b to looped/cyclic peptides of protein X2 of SARS-CoV Urbani [1]: 0.5
- Binding of serum 2 to linear peptides of protein X2 [1]: 0.4
- Binding of serum 2 to looped/cyclic peptides of protein X2 of SARS-CoV Urbani [1]: 0.4
- Binding of serum 6 to linear peptides of protein X2 [1]: 0.5
- Binding of serum 6 to looped/cyclic peptides of protein X2 of SARS-CoV Urbani [1]: 1.0
- Binding of serum 37 to linear peptides of protein X2 [1]: 0.6
- Binding of serum 37 to looped/cyclic peptides of protein X2 of SARS-CoV Urbani [1]: 0.4
- Binding of serum 62 to linear peptides of protein X2 [1]: 0.4
- Binding of serum 62 to looped/cyclic peptides of protein X2 of SARS-CoV Urbani [1]: 0.6
- Binding of serum London to linear peptides of protein X2 [1]: 0.3
- Binding of serum London to looped/cyclic peptides of protein X2 of SARS-CoV Urbani [1]: 1.4
- Binding of serum SARS-green to linear peptides of protein X2 [1]: 0.1
- Binding of serum SARS-green to looped/cyclic peptides of protein X2 of SARS-CoV Urbani [1]: 0.4
- Binding of serum SARS-yellow to linear peptides of protein X2 [1]: 0.6
- Binding of serum SARS-yellow to looped/cyclic peptides of protein X2 of SARS-CoV Urbani [1]: 0.7
- Binding of a rabbit serum to linear peptides [2]: 0.6
- Binding of a rabbit serum to looped peptides [2]: 0.5
- Binding of Control Serum Blood-Bank to Looped peptides [3]: 0.7
- Binding of Control serum Blood-bank to linear peptides [3]: 0.5
- Binding of Control serum LUMC to linear peptides [3]: 0.6
- Binding of Control serum LUMC to looped peptides [3]: 0.7

Sequence: QELLIQQWIQFMMSR
- Binding of serum 1a to linear peptides of protein X2 [1]: 0.7
- Binding of serum 1a to looped/cyclic peptides of protein X2 of SARS-CoV Urbani [1]: 0.5
- Binding of serum 1b to linear peptides of protein X2 [1]: 0.4
- Binding of serum 1b to looped/cyclic peptides of protein X2 of SARS-CoV Urbani [1]: 0.5
- Binding of serum 2 to linear peptides of protein X2 [1]: 0.4
- Binding of serum 2 to looped/cyclic peptides of protein X2 of SARS-CoV Urbani [1]: 0.6
- Binding of serum 6 to linear peptides of protein X2 [1]: 0.3
- Binding of serum 6 to looped/cyclic peptides of protein X2 of SARS-CoV Urbani [1]: 0.6
- Binding of serum 37 to linear peptides of protein X2 [1]: 0.5
- Binding of serum 37 to looped/cyclic peptides of protein X2 of SARS-CoV Urbani [1]: 0.5
- Binding of serum 62 to linear peptides of protein X2 [1]: 0.5
- Binding of serum 62 to looped/cyclic peptides of protein X2 of SARS-CoV Urbani [1]: 0.7
- Binding of serum London to linear peptides of protein X2 [1]: 0.4
- Binding of serum London to looped/cyclic peptides of protein X2 of SARS-CoV Urbani [1]: 1.2
- Binding of serum SARS-green to linear peptides of protein X2 [1]: 0.6
- Binding of serum SARS-green to looped/cyclic peptides of protein X2 of SARS-CoV Urbani [1]: 0.3
- Binding of serum SARS-yellow to linear peptides of protein X2 [1]: 0.6
- Binding of serum SARS-yellow to looped/cyclic peptides of protein X2 of SARS-CoV Urbani [1]: 0.5
- Binding of a rabbit serum to linear peptides [2]: 0.3
- Binding of a rabbit serum to looped peptides [2]: 0.4
- Binding of Control Serum Blood-Bank to Looped peptides [3]: 0.7
- Binding of Control serum Blood-bank to linear peptides [3]: 0.5
- Binding of Control serum LUMC to linear peptides [3]: 0.3
- Binding of Control serum LUMC to looped peptides [3]: 0.5
